Here are results for 21 molecules from US20250304571A1, “BIOLOGICALLY ACTIVE COMPOUNDS AND METHODS THEREOF” (Suzhou Keen Therapeutics Co., Ltd., priority 2022, published 2025).

Where two headings read alike, the source gives them in different places.

This assay relates to 786-O (renal cell carcinoma) cells. The experiment in a line: Cell viability (CellTiter Glo) assay, inhibition of 786-O cell proliferation. Type of assay: cell-based. As to conditions: Homo sapiens, read-out: IC50, inhibition of 786-O cell proliferation.
Setting [1] is: 786-0, 786-O cells, 72 hours, CellTiter Glo.

Take `C#CCOc1cccc(Oc2ccc(Nc3nc(N)nc(COC(=N)N(CC)c4ccccn4)n3)cc2)c1` [Compound F47]: under setting [1], the IC50 is under 100 nM.
On to `CC(C)Nc1nc(COC(=N)N2CCC[C@@H]2C(F)(F)F)nc2c1C1(CCCC1)C(=O)N2c1cnc(N2CCC(F)(F)C2)nc1` [Compound E81], for which the IC50 under setting [1] is under 100 nM.
Regarding `C[C@@H]1C[C@H](C)CN(c2ccc(N3C(=O)C(C)(C)c4c(NCC(F)(F)F)nc(COC(=N)N5CCC[C@@H]5C(F)(F)F)nc43)cc2F)C1` [Compound E43], the IC50 under setting [1] is under 100 nM.
With `CNc1nc(COC(=N)N2CCC[C@@H]2C(F)(F)F)nc2c1C1(CCCC1)C(=O)N2c1cnc(N2CC(F)(F)C2)nc1` [Compound E86], the IC50 under setting [1] is under 100 nM.
With `CNc1nc(COC(=N)N2CCCC2C(F)(F)F)nc2c1C(C)(C)C(=O)N2c1ccccc1Oc1ccccc1F` (stereo not drawn) [Compound E29], the IC50 (786-0, 72 h) is under 100 nM.
With `CCC(CC)Oc1ccc(N2CC(C)(C)c3cnc(COC(=N)N(CC(F)(F)F)C(C)C)nc32)nc1` [Compound E128], the IC50 under setting [1] is 100 to 500 nM.
As for `CNc1nc(COC(=N)N2CCC[C@@H]2C(F)(F)F)nc2c1C1(CCCC1)C(=O)N2c1cnc(N2CC3CC2CO3)nc1` (stereo partly drawn) [Compound E96, (7′-(2-(2-oxa-5-azabicyclo[2.2.1]heptan-5-yl)pyrimidin-5-yl)-4′-(methylamino)-6′-oxo-6′,7′-dihydrospiro[cyclopentane-1,5′-pyrrolo[2,3-d]pyrimidin]-2′-yl)methyl (2R)-2-(trifluoromethyl)pyrrolidine-1-carbimidate], the IC50 under setting [1] fell in the range of 100 to 500 nM.
As for `CC(C)N(CC(F)(F)F)C(=N)OCc1nc(N)c2c(n1)N(c1ccc(OC3CCCCC3)nc1)C(=O)C2(C)C` [Compound E167], the IC50 under setting [1] was under 100 nM.
`CC1(NC(=N)OCc2nc(N)nc(Nc3ccc(Oc4ccccc4)cc3)n2)CCCCC1` [Compound F15]: the IC50 under setting [1] was 100 to 500 nM.
As for `CCN(CC(F)(F)F)C(=N)OCc1ncc(C#N)c(Nc2ccc(Oc3ccccc3)cc2)n1` [Compound F50], the IC50 under setting [1] lay within 500 to 5000 nM.
On to `CNc1nc(COC(=N)N2CCCC2C(F)(F)F)nc2c1C(C)(C)CN2c1ccc(N2CCOCC2)cc1OC` (stereo not drawn) [Compound E15], for which, under setting [1], the IC50 is under 100 nM.
On to `CC1(C)C(=O)N(c2cnc(N3CCC(F)(F)C3)nc2)c2nc(COC(=N)N3CCOCC3C(F)(F)F)nc(NC3CCC3)c21` (stereo not drawn) [Compound E220], for which, under setting [1], the IC50 lay within 100 to 500 nM.
Consider `CNc1nc(COC(=N)N2CCC[C@H]2C(F)(F)F)nc2c1C(C)(C)C(=O)N2c1ccc(N2C[C@@H](C)O[C@@H](C)C2)nc1` [Compound E183], for which the IC50 under setting [1] was 100 to 500 nM.
On to `CNc1nc(COC(=N)N(C)C2COC2)nc2c1C(C)(C)C(=O)N2c1ccc(OC2CCCCC2)cc1` [Compound E169], for which the IC50 under setting [1] lay within 100 to 500 nM.
With `CC(C)N(CC(F)(F)F)C(=N)OCc1ncc2c(n1)N(c1ccc(N3CCOCC3)nc1)C(=O)CC2` [Compound E148, 1-isopropyl-2-[[8-(6-morpholino-3-pyridyl)-7-oxo-5,6-dihydropyrido[2,3-d]pyrimidin-2-yl]methyl]-1-(2,2,2-trifluoroethyl)isourea], the IC50 under setting [1] is over 5000 nM.
As for `CC1(C)C(=O)N(c2ccc(N3CCOCC3)cc2)c2nc(COC(=N)N3CC(F)C[C@H]3C(F)(F)F)nc(N)c21` (stereo partly drawn) [Compound E52], under setting [1], the IC50 is 100 to 500 nM.
Take `CC(C)N(CC(F)(F)F)C(=N)OCc1ncc2c(n1)N(c1ccc(OC3CCCCC3)nc1)CC2(C)C` [Compound E127]: the IC50 under setting [1] was in the range of 100 to 500 nM.
As for `C[C@@H]1C[C@H](C)CN(c2ncc(N3C(=O)C(C)(C)c4c(N)nc(COC(=N)N5CCC[C@@H]5C(F)(F)F)nc43)cc2F)C1` [Compound E34], the IC50 under setting [1] is under 100 nM.
As for `CC1(C)C(=O)N(c2ccc(N3CCOCC3)cc2)c2nc(COC(=N)N3CCC[C@@H]3C(F)(F)F)nc(NCC(F)F)c21` [Compound E197], under setting [1], the IC50 was under 100 nM.
`C[C@@H]1CN(c2ncc(N3C(=O)C4(CCCC4)c4c(N)nc(COC(=N)N5CCOC[C@@H]5C(F)(F)F)nc43)cn2)C[C@H](C)O1` [Compound E104B]: under setting [1], the IC50 was under 100 nM.
For `CNc1nc(COC(=N)N2CCC[C@@H]2C(F)(F)F)nc2c1C(C)(C)CN2c1ccc(N2C[C@@H](C)O[C@@H](C)C2)nc1` [Compound E19], the IC50 under setting [1] is under 100 nM.
